Measured values: patent publication US8147817B2, “IL-33 in the treatment and diagnosis of diseases and disorders” (The Brigham and Women's Hospital, Inc., priority 2006, dated 2012)
“Also recorded” adds a separate entry of the source.

What was measured:
IL-33 = IL-33 gene expression by quantitative PCR in cardiomyocytes and cardiac fibroblasts; type: cell-based, rat; conditions: PMA 0.2 μM, angiotensin-II 0.1 μM, TNF-α 10 ng/ml, IL-1β 10 ng/ml
Description: mRNA expression was analyzed by quantitative PCR using the QuantiTect SYBR Green reverse transcription-PCR kit (QIAGEN, Valencia, Calif.) and the Light Cycler System (Roche Applied Science, Indianapolis, Ind.) as previously described (5). Total RNA was extracted from cells with TRI reagent, and 0.2 μg of RNA was analyzed. Sequences of PCR primers were as follows (5′ to 3′): […] (SEQ ID NO: 1) and […] (SEQ ID NO: 2) (IL-33); […] (SEQ ID NO: 3) and […] (SEQ ID NO: 4) (ANP); […] (SEQ ID NO: 5) and […] (SEQ ID NO: 6) (BNP); […] (SEQ ID NO: 7) and […] (SEQ ID NO: 8) (procollagen I); […] (SEQ ID NO: 9) and […] (SEQ ID NO: 10) (collagen III).
mRNA expression was analyzed by quantitative PCR using the QuantiTect SYBR Green reverse transcription-PCR kit (QIAGEN) and the Light Cycler System (Roche Applied Science) as previously described (45). Total RNA was extracted from cells with TRI reagent, and 0.2 μg of RNA was analyzed. Sequences of PCR primers were as follows (5′ to 3′): […] (SEQ ID NO: 1) and […] (SEQ ID NO: 2) (rat IL-33); […] (SEQ ID NO: 3) and […] (SEQ ID NO: 4) (rat ANP); […] (SEQ ID NO: 5) and […] (SEQ ID NO: 6) (rat BNP).

[1] = tested on: rat neonatal cardiac fibroblasts; experiment: sST2 and IL-33 secretion and free IL-33 in cardiac fibroblast conditioned media (Western, immunoprecipitation); type: cell-based
Description: Immunoprecipitation was performed as described previously (45) with some modifications. Briefly, after wash with PBS, protein G-agarose beads were presaturated with far excessive amount of sST2-Fc protein (R&D) at 4° C. overnight, washed 3 times with PBS. 1 ml of conditioned media in the presence and absence of separated preincubation with 20 μg of the sST2-Fc protein was then incubated with presaturated beads for 2 hours at room temperature.
(§1) Western analyses were performed as described previously (45). Membranes were incubated with primary antibodies overnight (anti-p44/42MAPK diluted 1:500; phospho-p44/42MAPK (Thr202/Tyr204) 1:1000; phospho-JNK (Thr183/Tyr185) 1:500; p38MAPK 1:500; phospho-p38MAPK (Thr180/Tyr182) 1:500; phospho-Akt (Ser473) 1:1000 and phospho-IκBα 1:1000, all from Cell Signaling, anti-mouse ST2L, from R&D 1:1000 and anti-IL-33 as described above, 1:500) at 4° C., detected with horseradish peroxidase-conjugated antibodies and enhanced chemiluminescence.

cardiomyocytes = experiment: Oxidative stress assay (DCFDA, ROS generation); type: cell-based, rat; conditions: DCFDA
Description: An assay to detect oxidative stress was performed as reported previously (48). Cardiomyocytes were incubated with 2,7-dichlorodihydrofluorecein diacetate (DCFDA) for 45 min, washed in phosphate-buffered saline, and fluorescence intensity was measured using a fluorometer (PerkinElmer Life Science) at 595 nm.

NF-κB [2] = experiment: NF-κB nuclear binding activity by EMSA in cardiomyocytes; type: cell-based, rat; conditions: cardiomyocytes; angiotensin-II 1 μM, phenylephrine 50 μM, IL-33 10 ng/ml
Description: (§2) Electromobility shift assays were performed as described previously (8). Cells were lysed for 10 minutes on ice in a solution containing 10 mM HEPES (pH 7.6), 15 mM KCl, 2 mM MgCl2, 0.1 mM ethylenediamine tetraacetic acid (EDTA), 1 mM dithiothreitol (DTT), 0.5 mM phenylmethylsulphonylfluoride (PMSF), 10 μg/mL leupeptin and 0.2% Nonident P-40. Dishes were gently scraped, and nuclei were collected by centrifugation at 800 g for 30 seconds and then suspended in a solution of 50 mM HEPES, 400 mM KCl, 0.1 mM EDTA, 10% glycerol, 1 mM DTT, 0.5 mM PMSF and 10 μg/mL leupeptin. The mixture was incubated on ice for 30 minutes, and the supernatant was collected after centrifugation for 15 minutes at 400 g. Binding reactions were performed with 5 or 10 μg of nuclear protein in 10 mM Tris, 1 mM DTT, 1 mM EDTA, 5% glycerol, 0.1% Triton X-100, 1 mg poly(dIdC), 5 μg bovine serum albumin (BSA) and approximately 10,000 cpm of −32P-labeled oligonucleotide. The binding reactions for AP-1 activity also contained 5 mM MgCl2. Control reaction mixtures contained a 100-fold excess of unlabeled oligonucleotide and were incubated with nuclear extracts of IL-1β-treated cells. DNA complexes were separated on a 4% nondenaturing polyacrylamide gel in Tris-HCl (6.7 mM), EDTA (1 mM) and ammonium acetate (3.3 mM). The oligonucleotides contained the NF-B binding site (sequence: 5′-AGTTGAGGGGACTTTCCCAGGC-3′ (SEQ ID NO: 15)) and were labeled by standard procedures.
EMSAs were performed as described previously (47). Cells were lysed for 10 minutes on ice in 10 mM HEPES (pH 7.6), 15 mM KCl, 2 mM MgCl2, 0.1 mM EDTA, 1 mM DTT, 0.5 mM PMSF, 10 μg/mL leupeptin, and 0.2% Nonident P-40. Dishes were gently scraped, and nuclei were collected by centrifugation at 800 g for 30 seconds and then suspended in a solution of 50 mM HEPES, 400 mM KCl, 0.1 mM EDTA, 10% glycerol, 1 mM DTT, 0.5 mM PMSF, and 10 μg/mL leupeptin. The mixture was incubated on ice for 30 minutes, and the supernatant was collected after centrifugation for 15 minutes at 400 g. Binding reactions were performed with 5 or 10 μg of nuclear protein in 10 mM Tris, 1 mM DTT, 1 mM EDTA, 5% glycerol, 0.1% Triton X-100, 1 mg poly(dIdC), […] BSA, and 10,000 cpm of [^32P]-labeled oligonucleotide. The specific NF-κB consensus oligonucleotides were 5′-[…]-3′ (SEQ ID NO: 15) and 5′-[…]-3′ (SEQ ID NO: 18) (Promega). Positive and negative control mixtures as well as specific competition mixtures were made as recommended by the manufacturer's instructions, using binding buffer with positive samples, labeled NF-κB oligonucleotides and 10-fold excess of cold NF-κB consensus oligonucleotides for specific competition. DNA complexes were separated on a 6% nondenaturing polyacrylamide gel in Tris-HCl (6.7 mM), EDTA (1 mM), and ammonium acetate (3.3 mM).

NF-κB [3] = experiment: NF-κB nuclear binding activity by EMSA in cardiac fibroblasts; type: cell-based, rat; conditions: angiotensin-II 1 μM, phenylephrine 50 μM, IL-33 10 ng/ml
Description: as §2
EMSAs were performed as described previously (47). Cells were lysed for 10 minutes on ice in 10 mM HEPES (pH 7.6), 15 mM KCl, 2 mM MgCl2, 0.1 mM EDTA, 1 mM DTT, 0.5 mM PMSF, 10 μg/mL leupeptin, and 0.2% Nonident P-40. Dishes were gently scraped, and nuclei were collected by centrifugation at 800 g for 30 seconds and then suspended in a solution of 50 mM HEPES, 400 mM KCl, 0.1 mM EDTA, 10% glycerol, 1 mM DTT, 0.5 mM PMSF, and 10 μg/mL leupeptin. The mixture was incubated on ice for 30 minutes, and the supernatant was collected after centrifugation for 15 minutes at 400 g. […]

NF-κB [4] = experiment: NF-κB luciferase reporter assay in neonatal rat cardiomyocytes; type: cell-based; conditions: n=3
Description: Neonatal rat cardiomyocytes were transfected using Lipofectamine Plus (Invitrogen) with a luciferase reporter plasmid for NF-κB and with β-galactosidase, as described previously (47). After 48 hours of transfection, cells were then stimulated for an additional 24 hours, lysed and treated with Dual-Light assay system (Applied Biosystems, Foster City, Calif.), and analyzed using a luminometer (PerkinElmer Waltham, Calif.).

IκBα [5] = experiment: IκBα phosphorylation by Western analysis in cardiomyocytes; type: cell-based, rat; conditions: cardiomyocytes
Description: as §1

IκBα [6] = experiment: IκBα phosphorylation by Western analysis in cardiac fibroblasts; type: cell-based, rat
Description: as §1

[7] = tested on: rat neonatal cardiomyocytes; experiment: [3H]-leucine incorporation assay (hypertrophy); type: cell-based; conditions: for hypertrophic response under angiotensin-II or phenylephrine: agent added without IL-33; for antihypertrophic effect of IL-33: under angiotensin-II or phenylephrine plus IL-33, agent added
Description: Leucine incorporation in rat neonatal cardiomyocytes was detected as previously described (7). Cells were pre-incubated with 1.0 μCi/mL [^3H]leucine for 24 hours. The medium was aspirated, and the cells were washed twice with ice-cold PBS and once with 10% trichloroacetic acid (TCA; Sigma) and fixed for 45 minutes at 4° C. with 10% TCA. After washing twice with cold 95% ethanol, radioactivity incorporated into the TCA-precipitable material was determined by liquid scintillation counting after solubilization in 0.15N NaOH.
Leucine incorporation in rat neonatal cardiomyocytes was detected as previously described (46). Cells were treated with 1.0 μCi/ml [^3H]-leucine for 24 hours, washed, fixed with 10% trichloroacetate (Sigma) for 45 minutes at 4° C., and then radioactivity was determined by liquid scintillation counting. An anti-mouse ST2 antibody (R&D) was used as a functional neutralizing antibody (12). A normal rat IgG2a (Sigma) and mouse IL-1Rrp2 (R&D) were used as controls for anti-mouse ST2 antibody (R&D) and mouse soluble ST2 (R&D), respectively.

[8] = increasing doses of PMA, 24 hrs

CCCCCCCCCCCCCC(=O)O[C@@H]1[C@@H](C)[C@@]2(O)[C@@H](C=C(CO)C[C@]3(O)C(=O)C(C)=C[C@@H]23)[C@@H]2C(C)(C)[C@]12OC(C)=O [PMA, phorbol 12-myristate 13-acetate]
induction of IL-33 gene expression (IL-33): induced the expression of IL-33 in both cell types; also recorded: powerful inducer | free (unbound) IL-33 [1, 8]: unbound IL-33 diminished; also recorded: dose-dependent decrease in free IL-33 level; also recorded: dose-dependently decreased free IL-33 | secretion of sST2 and total IL-33 [1, 8]: both sST2 and total IL-33 were induced; also recorded: dose-dependent robust induction in both sST2 and IL-33 protein expression; also recorded: dose-dependently increased secretion of both IL-33 (top) and sST2

CNC[C@H](O)c1cccc(O)c1 [phenylephrine, reference compound]
ROS generation by agonist alone (cardiomyocytes): significantly induced ROS generation | NF-κB activation by agent alone (NF-κB [2]): independently activated NF-κB in both cell types | NF-κB activation by agent alone (NF-κB [3]): independently activated NF-κB in both cell types

IL-1β: cytokine stimulus, 10 ng/ml
induction of IL-33 gene expression (IL-33): neither TNF-α (10 ng/ml) nor IL-1β (10 ng/ml) induced IL-33 gene expression

TNF-α
induction of IL-33 gene expression (IL-33): neither TNF-α (10 ng/ml) nor IL-1β (10 ng/ml) induced IL-33 gene expression

angiotensin-II (DRVYIHPF; Angiotensin-2; UniProt P01019 25-32, looked up) [hypertrophic stimulus, angiotensin receptor agonist, reference compound]
ROS generation by agonist alone (cardiomyocytes): significantly induced ROS generation | NF-κB activation by agent alone (NF-κB [2]): independently activated NF-κB in both cell types | induction of IL-33 gene expression (IL-33): induced the expression of IL-33 in both cell types | increase of NF-κB promoter activity (NF-κB [4]; angiotensin-II alone): 66+/−26% | IκBα phosphorylation by agent alone (IκBα [5]): induced IκBα phosphorylation in both cell types | IκBα phosphorylation by agent alone (IκBα [6]): induced IκBα phosphorylation in both cell types | NF-κB activation by agent alone (NF-κB [3]): independently activated NF-κB in both cell types

sST2-Fc: sST2-Fc protein (R&D), recombinant ST2-Fc chimera protein
free IL-33 in conditioned media after preincubation ([1]; 20 μg of sST2-Fc protein): removed free IL-33

sST2: soluble form of ST2; mouse soluble ST2 (R&D); acts as decoy receptor for IL-33
increase of NF-κB promoter activity (NF-κB [4]; angiotensin-II with IL-33 and sST2 co-treatment): 42+/−5% | hypertrophic response under angiotensin-II or phenylephrine [7]: further augment the hypertrophic response; also recorded: trend toward increased amino acid uptake | hypertrophic response under angiotensin-II or phenylephrine ([7]; listed as soluble ST2): further enhanced hypertrophy | leucine uptake at baseline ([7]; agent alone, vs baseline or control protein): not affected | antihypertrophic effect of IL-33 [7]: reversed the antihypertrophic effect of IL-33 in a dose-dependent manner | antihypertrophic effect of IL-33 ([7]; listed as Soluble ST2): dose-dependently reversed the antihypertrophic effect of IL-33 | antihypertrophic effect of IL-33 ([7]; listed as soluble ST2): abolishes it; also recorded: the effects of IL-33 are abolished
